Measured values from ChEMBL document CHEMBL1201862, “PubChem BioAssay data set” (2004).
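96-well plates; 48 h exposure; 5 concentrations. Endpoints by linear interpolation between flanking doses. Not reached: highest tested concentration assigned. GI50 marks 50% less growth.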 Calls of active or inactive are those of the source. Cut-off read from the data, not from the text of the source: active = GI50 up to about 1.1 µM and inactive = higher.

Tests used:
Assay in all cases: NCI tumour cell line growth inhibition, 48 h
RXF 393 = tested on: RXF 393
786-0 = tested on: 786-0
OVCAR-8 = tested on: OVCAR-8
CCRF-CEM = tested on: CCRF-CEM
UACC-62 = tested on: UACC-62
HL-60 = tested on: HL-60
MDA-N = tested on: MDA-N
MOLT-4 = tested on: MOLT-4
BT-549 = tested on: BT-549
PC-3 = tested on: PC-3
K562 = tested on: K562
SK-MEL-5 = tested on: SK-MEL-5
NCI-H522 = tested on: NCI-H522
M14 = tested on: M14
IGROV-1 = tested on: IGROV-1
CAKI-1 = tested on: CAKI-1
SN12C = tested on: SN12C
A498 = tested on: A498
NCI/ADR-RES = tested on: NCI/ADR-RES
MCF7 = tested on: MCF7
OVCAR-4 = tested on: OVCAR-4
SK-MEL-2 = tested on: SK-MEL-2
DU-145 = tested on: DU-145
NCI-H460 = tested on: NCI-H460
U-251 = tested on: U-251
A549 = tested on: A549
RPMI-8226 = tested on: RPMI-8226
Hs-578T = tested on: Hs-578T
OVCAR-3 = tested on: OVCAR-3
SNB-19 = tested on: SNB-19
UACC-257 = tested on: UACC-257
HOP-62 = tested on: HOP-62
SF-268 = tested on: SF-268
SK-OV-3 = tested on: SK-OV-3
TK-10 = tested on: TK-10
EKVX = tested on: EKVX
HT-29 = tested on: HT-29
ACHN = tested on: ACHN
HCC 2998 = tested on: HCC 2998
NCI-H23 = tested on: NCI-H23
MDA-MB-231 = tested on: MDA-MB-231
SNB-75 = tested on: SNB-75
SR = tested on: SR
T47D = tested on: T47D
SW-620 = tested on: SW-620
COLO 205 = tested on: COLO 205
HOP-92 = tested on: HOP-92
OVCAR-5 = tested on: OVCAR-5
NCI-H226 = tested on: NCI-H226
MDA-MB-435 = tested on: MDA-MB-435
SF-295 = tested on: SF-295
SF-539 = tested on: SF-539
KM12 = tested on: KM12
HCT-15 = tested on: HCT-15
LOX IMVI = tested on: LOX IMVI
UO-31 = tested on: UO-31
Malme-3M = tested on: Malme-3M
SK-MEL-28 = tested on: SK-MEL-28
HCT-116 = tested on: HCT-116

With `CC(=O)O[C@@H]1CO[C@H]2O[C@H]3[C@@H](C(C=O)=C[C@H](O)[C@@H]4C5=C(C(C)C)CC[C@]5(C)CC[C@@]34C)[C@@]2(O)C1=O` [STRIATIN E] the GI50 (RXF 393) was 106 nM (active), the GI50 (786-0) was 112 nM (active) and the GI50 (OVCAR-8) was 130 nM (active). The GI50 (CCRF-CEM) was < 27.1 nM (active), the GI50 (UACC-62) was 515 nM (active) and the GI50 (HL-60) was 17.5 nM (active). The GI50 (MDA-N) was 177 nM (active), the GI50 (MOLT-4) was 90.6 nM (active) and the GI50 (BT-549) was 120 nM (active). For the same compound, the GI50 (PC-3) was 96.8 nM (active), the GI50 (K562) was 86.9 nM (active) and the GI50 (SK-MEL-5) was 267 nM (active). The GI50 (NCI-H522) was 80.3 nM (active), the GI50 (M14) was 262 nM (active) and the GI50 (IGROV-1) was 219 nM (active). The GI50 (CAKI-1) was 200 nM (active), the GI50 (SN12C) was 156 nM (active) and the GI50 (A498) was 305 nM (active). The GI50 (NCI/ADR-RES) was 189 nM (active), the GI50 (MCF7) was 217 nM (active) and the GI50 (OVCAR-4) was 241 nM (active). For the same compound, the GI50 (SK-MEL-2) was 230 nM (active), the GI50 (DU-145) was 716 nM (active) and the GI50 (NCI-H460) was 255 nM (active). The GI50 (U-251) was 175 nM (active), the GI50 (A549) was 805 nM (active) and the GI50 (RPMI-8226) was 59.2 nM (active). For the same compound, the GI50 (Hs-578T) was 221 nM (active), the GI50 (OVCAR-3) was 139 nM (active) and the GI50 (SNB-19) was 692 nM (active). The GI50 (UACC-257) was 219 nM (active), the GI50 (HOP-62) was 575 nM (active) and the GI50 (SF-268) was 240 nM (active). For the same compound, the GI50 (SK-OV-3) was 3740 nM (inactive), the GI50 (TK-10) was 229 nM (active) and the GI50 (EKVX) was 359 nM (active). For the same compound, the GI50 (HT-29) was 91.8 nM (active), the GI50 (ACHN) was 114 nM (active) and the GI50 (HCC 2998) was 519 nM (active). The GI50 (NCI-H23) was 209 nM (active), the GI50 (MDA-MB-231) was 184 nM (active) and the GI50 (SNB-75) was 73.6 nM (active). The GI50 (SR) was 146 nM (active), the GI50 (T47D) was 88.9 nM (active) and the GI50 (SW-620) was 49.9 nM (active). The GI50 (COLO 205) was 76.9 nM (active), the GI50 (HOP-92) was 210 nM (active) and the GI50 (OVCAR-5) was 303 nM (active). The GI50 (NCI-H226) was 378 nM (active), the GI50 (MDA-MB-435) was 174 nM (active) and the GI50 (SF-295) was 586 nM (active). The GI50 (SF-539) was 177 nM (active), the GI50 (KM12) was 404 nM (active) and the GI50 (HCT-15) was 200 nM. For the same compound, the GI50 (LOX IMVI) was 277 nM (active), the GI50 (UO-31) was 241 nM (active) and the GI50 (Malme-3M) was 177 nM (active). For the same compound, the GI50 (SK-MEL-28) was 234 nM (active) and the GI50 (HCT-116) was 76 nM (active).
